Measurements from patent US11717598B2, “Operating room coating applicator and method” (Ethicon, Inc., priority 2018, dated 2023).

What was measured:
[1] = test system: S. aureus; settings: measured in a suitable growth medium; Bhargava, H. et al, American Journal of Infection Control, June 1996; cited from earlier work
[2] = test system: Staphylococcus aureus; test: zone of inhibition test of triclosan-coated stainless steel coupon on agar plate; format: cell-based; settings: triclosan coating on 0.5" polished 316 stainless steel coupon; incubated at 38° C. for 24 hours; inoculum of 10^5 bacteria per cubic centimeter; 80 mm diameter plate
Excerpt: A filter paper disk, or other object, impregnated with a particular antimicrobial agent is applied to an agar medium that is inoculated with the test organism. Where the anti-microbial agent diffuses through the medium, and as long as the concentration of the antimicrobial agent is above the MIC, none of the susceptible organism will grow on or around the disk for some distance. This distance is called a zone of inhibition. […] The diameter of the zone of inhibition is inversely proportional to the MIC.
A triclosan coating was applied to a 0.5″ polished 316 stainless steel coupon using the device described in FIGS. 1 and 2 according to the cycle described in FIG. 10. The stainless steel coupon was then incubated at 38° C. for 24 hours on an agar plate containing an initial Staphylococcus aureus inoculum of 10^5 bacteria per cubic centimeter of solution.

In the case of `Oc1cc(Cl)ccc1Oc1ccc(Cl)cc1Cl` [triclosan, 2,4,4′-trichloro-2′-hydroxydiphenyl ether], the “minimum inhibitory concentration (MIC) against S. aureus” value [1] is listed as 0.01 ppm and the zone of inhibition [2] is listed as “approximately 40 mm”.
